The text below walks through data of patent US20080076740A1, “Antiviral compounds” (GILEAD SCIENCES, INC., priority 2005, published 2008).

Where two headings read alike, the source gives them in different places.

A short description of series [1]: Caco-2 permeability. Type of series: in vitro ADME.
Series [2] is described as follows: Pharmacokinetics in dog. The settings on record: for clearance: in vivo, read-out: Cl Dog (converted). It counts as in vivo.
The nature of series [3]: Pharmacokinetics in rat. Type of series: in vivo. The settings on record: for clearance: in vivo, read-out: Cl Rat (converted).
Series [4] deals with HIV. The experiment in a line: Anti-HIV activity in MT4 cells. Type of series: cell-based. The settings on record: Human immunodeficiency virus 1.
Series [5] in a line: Cytotoxicity in MT4 cells. The settings on record: human.
Series [6] deals with Strand Transfer (Human immunodeficiency virus type 1 group M subtype B, UniProt P04585). In words: Integrase strand transfer inhibition. Type of series: biochemical, HIV.
Series [7] can be described thus: Hepatocyte stability, human. The settings on record: hepatocytes.
Series [8] can be described thus: In vitro PBMC loading rate. Type of series: in vitro ADME. The settings on record: human. The source says: In one embodiment, the invention is provides compounds capable of accumulating in human PBMC (peripheral blood mononuclear cells). PBMC refer to blood cells having round lymphocytes and monocytes. Physiologically, PBMC are critical components of the mechanism against infection. PBMC may be isolated from heparinized whole blood of normal healthy donors or buffy coats, by standard density gradient centrifugation and harvested from the interface, washed (e.g. phosphate-buffered saline) and stored in freezing medium. PBMC may be cultured in multi-well plates. At various times of culture, supernatant may be either removed for assessment, or cells may be harvested and analyzed (Smith R. etal (2003) Blood 102(7):2532-2540). The compounds of this embodiment may further comprise a phosphonate or phosphonate prodrug. More typically, the phosphonate or phosphonate prodrug can have the structure A^3 as described herein.

A short description of series [9]: Hepatocyte stability, dog. The settings on record: hepatocytes.
Series [10] can be described thus: Phosphonate prodrugs in vivo summary (pharmacokinetics). The settings on record: species not given.
The test system of series [11] is HIV. The experiment in a line: Antiviral activity in MT-2 cells. It counts as cell-based.
Series [12] in a line: in vitro. The settings on record: human.
The mark [13] stands for this setting: human, Caco-2 studies, read-out: Papp.

A word on the Papp: it is the rate of passage across a membrane or cell layer, normalised by area and donor concentration. As to `O=C(NCc1ccc(F)cc1)c1nc(N2CCCCS2(=O)=O)c2cccnc2c1O` [Compound L-870810, reference compound], the Papp in series [1] (setting [13]) is 40 ×10⁻⁶ cm/s. For the same compound, in series [2], the “F Dog” value is reported as 50%, the “Vdb Dog” value stood at 0.5 L/kg and the clearance was 1.17 mL/min/kg. Besides, in [3], the “F Rat” value was determined as 42%, the “Vdb Rat” value was determined as 0.72 L/kg and the clearance was 1.5 mL/min/kg.
In general, EC50 refers to the midpoint of the concentration-response curve. A high value points to a less potent agent. As usually defined, the IC50 is the midpoint of a concentration-inhibition curve. In turn, `COP(=O)(CCN1CCN(C(=O)Oc2c3c(c(O)c4ncccc24)C(=O)N(Cc2ccc(F)cc2)C3)CC1)OC` [Compound 2004] displayed an EC50 in series [4] of less than 20 nM. Also, the CC50 in series [5] was less than 5000 nM. The IC50 in series [6] was less than 600 nM.
For orientation: half-life means how long it takes for the measured level to halve. Lower therefore signals fast loss. In turn, `CCOC(=O)C(C)NP(=O)(CCN(C)C(=O)c1c2c(c(O)c3ncccc13)C(=O)N(Cc1ccc(F)cc1)C2)Oc1ccccc1` (centres unmarked) [Compound 2008] returned a half-life in series [7] of 1.95 h. The “In vitro PBMC Loading Rate” value in series [8] was 19551 nM/h. Also, the Papp in [1] (human, Caco-2, read-out: Papp) came to 0.1 ×10⁻⁶ cm/s. Besides, the half-life in series [9] was 0.733 h. In series [10], the “(head line blank)” value came to 15 mL/min/kg, the F was determined as 0.5% and the Vdβ was 1.8 L/kg.
For `O=C(NCc1ccccn1)c1c2c(c(O)c3ncccc13)C(=O)N(Cc1ccc(F)cc1)C2` [Compound 2001], the Papp in series [1] (setting [13]) worked out at 5 ×10⁻⁶ cm/s. In [2], the “F Dog” value stood at 28%, the “Vdb Dog” value was found to be 0.8 L/kg and the clearance is 1.17 mL/min/kg. Further, in series [3], the “F Rat” value was determined as 2%, the “Vdb Rat” value is 8.2 L/kg and the clearance is 183 mL/min/kg.
In series [7], `CCOC(=O)[C@H](C)NP(=O)(CCCN(C)C(=O)c1c2c(c(O)c3ncccc13)C(=O)N(Cc1ccc(F)cc1)C2)Oc1ccccc1` (some centres unmarked) [Compound 2012] returned a half-life of 2.57 h. Moreover, the “In vitro PBMC Loading Rate” value in [8] is given as 4831 nM/h. For the same compound, in series [1] (Caco-2), the Papp entry is recorded as “BQL”. This compound yielded a half-life in series [9] of 0.767 h. Also, in series [10], the “(head line blank)” value is 12 mL/min/kg, the F came to 0.2% and the Vdβ amounted to 0.7 L/kh.
In series [7], `CCOC(=O)[C@H](C)OP(=O)(CCN1CCN(C(=O)Oc2c3c(c(O)c4ncccc24)C(=O)N(Cc2ccc(F)cc2)C3)CC1)Oc1ccccc1` (some centres unmarked) [Compound 2005] displayed a half-life of 1.65 h. Further, the “In vitro PBMC Loading Rate” value in series [8] amounted to 5291 nM/h. Further, the EC50 in series [4] was less than 20 nM. The compound also gave a CC50 in series [5] of less than 5000 nM. Further, in [9], the half-life worked out at 1.07 h. This compound came in with an IC50 in [6] of less than 1200 nM. Moreover, in series [10], the “(head line blank)” value was 60 mL/min/kg, the F is given as 3% and the Vdβ came out at 10.8 L/kg.
For the compound `CCOC(=O)[C@H](C)OP(=O)(CCNC(=O)c1c2c(c(O)c3ncccc13)C(=O)N(Cc1ccc(F)cc1)C2)Oc1ccccc1` (some centres unmarked) [Compound 2014], in series [10], the “(head line blank)” value came to 16.7 mL/min/kg, the F is 0.04% and the Vdβ was found to be 1.1 L/kg.
For the compound `CCOC(=O)[C@H](C)NP(=O)(CCN(C)C(=O)c1c2c(c(O)c3ncccc13)C(=O)N(Cc1ccc(F)cc1)C2)OCC(F)(F)F` (some centres unmarked) [Compound 2018], the EC50 in series [11] turned out to be 0.1 nM.
Turning to `CCOP(=O)(CNC(=O)CCSC1c2c(c(O)c3ncccc3c2OC)C(=O)N1Cc1ccc(F)cc1)OCC` (centres unmarked) [Compound 2021], the half-maximal effective concentration (EC50) in series [4] is less than 500 nM. In addition, in series [6] (read-out: IC50 Strand Transfer), the concentration for half-maximal inhibition (IC50) is less than 1200 nM. For the same compound, in series [12], the CC50 is less than 50000 nM.
For `CCOC(=O)[C@H](C)NP(=O)(CCN(C)C(=O)c1c2c(c(O)c3ncccc13)C(=O)N(Cc1ccc(F)cc1)C2)OCC(F)(F)F` (some centres unmarked) [Compound 2017], the response in series [11] was half-maximal at 1 nM (EC50).
On to `CCOC(=O)[C@H](C)NP(=O)(CO[C@H](C)CNC(=O)c1c2c(c(O)c3ncccc13)C(=O)N(Cc1ccc(F)cc1)C2)Oc1ccccc1` (some centres unmarked) [Compound 2013], for which the results for the half-life in series [7] and in series [9] were 1.33 h and 0.883 h, respectively. Also, the “In vitro PBMC Loading Rate” value in series [8] came out at 5774 nM/h. The apparent permeability coefficient (Papp) entry in [1] (Caco-2) is given as “BQL”. The “(head line blank)” value in series [10] was 15 mL/min/kg. Moreover, the Vdβ in series [10] turned out to be 4 L/kg.
For `CCOC(=O)[C@H](C)NP(=O)(CCCNC(=O)c1c2c(c(O)c3ncccc13)C(=O)N(Cc1ccc(F)cc1)C2)Oc1ccccc1` (some centres unmarked) [Compound 2016], in series [10], the “(head line blank)” value was 6.7 mL/min/kg and the Vdβ is 0.7 L/kh.
Consider `CCOP(=O)(COc1c2c(c(O)c3ncccc13)C(=O)N(Cc1ccc(F)cc1)C2)OCC` [Compound 2002], for which, in series [4], the EC50 was less than 20 nM. Moreover, the 50% inhibitory concentration (IC50) in series [6] (read-out: IC50 Strand Transfer) was less than 600 nM. The CC50 in [12] is less than 5000 nM.
For the compound `CCOC(=O)[C@H](C)NP(=O)(CCN(C)C(=O)c1c2c(c(O)c3ncccc13)C(=O)N(Cc1ccc(F)cc1)C2)OCC(F)(F)F` (some centres unmarked) [Compound 2009], the apparent permeability (Papp) in series [1] (human, Caco-2, read-out: Papp) lay within 1 to 4 ×10⁻⁶ cm/s. For the same compound, the half-life in series [9] amounted to 1.22 h. Further, in [10], the “(head line blank)” value stood at 43.3 mL/min/kg, the F was found to be 7% and the Vdβ was determined as 3 L/kg.
In turn, `CCOP(=O)(CN1CCN(C(=O)Oc2c3c(c(O)c4ncccc24)C(=O)N(Cc2ccc(F)cc2)C3)CC1)OCC` [Compound 2003] registered an EC50 in series [4] of less than 20 nM. The CC50 in series [5] is less than 5000 nM. Also, the concentration for half-maximal inhibition (IC50) in series [6] was less than 600 nM.
On to `CCOC(=O)[C@H](C)NP(=O)(CCN1CCN(C(=O)c2c3c(c(O)c4ncccc24)C(=O)N(Cc2ccc(F)cc2)C3)CC1)Oc1ccccc1` (some centres unmarked) [Compound 2015], for which, in series [10], the “(head line blank)” value was 13 mL/min/kg and the Vdβ was determined as 0.8 L/kh.
Turning to `CCOC(=O)[C@H](C)NP(=O)(CCNC(=O)c1c2c(c(O)c3ncccc13)C(=O)N(Cc1ccc(F)cc1)C2)Oc1ccccc1` (some centres unmarked) [Compound 2006], the half-life in [7] came to 1.63 h. Besides, the “In vitro PBMC Loading Rate” value in series [8] came out at 7830 nM/h. Further, the half-life in series [9] amounted to 1.73 h. Also, in [10], the “(head line blank)” value was 15 mL/min/kg, the F entry is “BLQ” and the Vdβ stood at 0.7 L/kh.
On to `CCOC(=O)[C@H](C)NP(=O)(CCNC(=O)c1c2c(c(O)c3ncccc13)C(=O)N(Cc1ccc(F)cc1)C2)N[C@@H](C)C(=O)OCC` [Compound 2007], for which the half-life in series [7] stood at 2.65 h. Moreover, the Papp entry in [1] (Caco-2) is “BQL”. Further, in series [9], the half-life was determined as 3.23 h. In series [10], the “(head line blank)” value was 58.3 mL/min/kg and the Vdβ was 4 L/kg.
As for `CCOC(=O)[C@H](C)OP(=O)(CCN1CCN(C(=O)c2c3c(c(O)c4ncccc24)C(=O)N(Cc2ccc(F)cc2)C3)CC1)Oc1ccccc1` (some centres unmarked) [Compound 2011], the half-life in [7] came to 1.4 h. Also, in [8], the “In vitro PBMC Loading Rate” value is listed as 4810 nM/h. The compound also returned a half-life in [9] of 0.733 h. Moreover, in series [10], the “(head line blank)” value amounted to 76.7 mL/min/kg, the F was determined as 0.3% and the Vdβ is 9.1 L/kg.
